Assay results reported in PubChem BioAssay AID2060605 (Molecular Pharmacology Branch, DTP, NCI, 2025).
pIC50: −log10 of the molar value.

System: 947758-054-R-J2-PDC spheroid growth, percent test/control
Test: Anticancer human tumor 947758-054-R-J2-PDC patient-derived colon adenocarcinoma cell line growth inhibition [CLK]
Conditions: spheroids with HUVEC and MSC; for pIC50: curve of first compound; for viability, T/C: stronger effect = lower value
How it was run: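 Patient-derived tumor cells grown as complex spheroids with HUVEC endothelial cells and mesenchymal stem cells, treated with drug combinations. Concentrations descend in half-log steps from near clinical Cmax, or from 10 microM if Cmax unknown.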
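Also: spheroids exposed to compounds for one week before readout.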
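For viability, T/C in this document: 100% = DMSO vehicle control wells.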

## CC(C)CC(NC(=O)C(Cc1ccccc1)NC(=O)c1cnccn1)B(O)O (configuration not stated) + CN1CCN(c2cc(C(=O)Nc3cc4cc(-c5cnn(C)c5)ccc4cn3)ccn2)CC1
Second compound 0.0316 µM
  pIC50: 8.72
Second compound 0.1 µM
  pIC50: 8.62
Second compound 0.316 µM
  pIC50: > 9.02
Second compound 1 µM
  pIC50: > 9.02
Second compound 3.16 µM
  pIC50: > 9.02
Second compound 10 µM
  pIC50: > 9.02
Second compound 0.0316 µM, first compound 0.000949 µM
  viability, T/C: 121%
Second compound 0.0316 µM, first compound 0.003 µM
  viability, T/C: 5.43%
Second compound 0.0316 µM, first compound 0.00949 µM
  viability, T/C: 0.78%
Second compound 0.0316 µM, first compound 0.03 µM
  viability, T/C: 0.27%
Second compound 0.0316 µM, first compound 0.0949 µM
  viability, T/C: 0.29%
Second compound 0.0316 µM, first compound 0.3 µM
  viability, T/C: 0.27%
Second compound 0.1 µM, first compound 0.000949 µM
  viability, T/C: 229%
Second compound 0.1 µM, first compound 0.003 µM
  viability, T/C: 7.59%
Second compound 0.1 µM, first compound 0.00949 µM
  viability, T/C: 0.31%
Second compound 0.1 µM, first compound 0.03 µM
  viability, T/C: 0.29%
Second compound 0.1 µM, first compound 0.0949 µM
  viability, T/C: 0.32%
Second compound 0.1 µM, first compound 0.3 µM
  viability, T/C: 0.3%
Second compound 0.316 µM, first compound 0.000949 µM
  viability, T/C: 1.38%
Second compound 0.316 µM, first compound 0.003 µM
  viability, T/C: 0.21%
Second compound 0.316 µM, first compound 0.00949 µM
  viability, T/C: 0.22%
Second compound 0.316 µM, first compound 0.03 µM
  viability, T/C: 0.22%
Second compound 0.316 µM, first compound 0.0949 µM
  viability, T/C: 0.2%
Second compound 0.316 µM, first compound 0.3 µM
  viability, T/C: 0.23%
Second compound 1 µM, first compound 0.000949 µM
  viability, T/C: 0.14%
Second compound 1 µM, first compound 0.003 µM
  viability, T/C: 0.15%
Second compound 1 µM, first compound 0.00949 µM
  viability, T/C: 0.15%
Second compound 1 µM, first compound 0.03 µM
  viability, T/C: 0.16%
Second compound 1 µM, first compound 0.0949 µM
  viability, T/C: 0.18%
Second compound 1 µM, first compound 0.3 µM
  viability, T/C: 0.15%
Second compound 3.16 µM, first compound 0.000949 µM
  viability, T/C: 0.21%
Second compound 3.16 µM, first compound 0.003 µM
  viability, T/C: 0.12%
Second compound 3.16 µM, first compound 0.00949 µM
  viability, T/C: 0.12%
Second compound 3.16 µM, first compound 0.03 µM
  viability, T/C: 0.13%
Second compound 3.16 µM, first compound 0.0949 µM
  viability, T/C: 0.21%
Second compound 3.16 µM, first compound 0.3 µM
  viability, T/C: 2.33%
Second compound 10 µM, first compound 0.000949 µM
  viability, T/C: 0.34%
Second compound 10 µM, first compound 0.003 µM
  viability, T/C: 0.18%
Second compound 10 µM, first compound 0.00949 µM
  viability, T/C: 1.25%
Second compound 10 µM, first compound 0.03 µM
  viability, T/C: 0.16%
Second compound 10 µM, first compound 0.0949 µM
  viability, T/C: 0.21%
Second compound 10 µM, first compound 0.3 µM
  viability, T/C: 1.68%
